{
  "source": "ChEMBL document CHEMBL5036330",
  "about": "“Discovery of 8,9-seco-ent-Kaurane Diterpenoids as Potential Leads for the Treatment of Triple-Negative Breast Cancer” (J Med Chem, 2021)",
  "key": {"[1]": {"tested_on": "MDA-MB-231", "test": "Induction of apoptosis in human MDA-MB-231 cells assessed as early apoptotic cells at 1 uM measured after 24 hrs by Annexin V/Propidium iodide stain based Flow cytometry (reference value: 3.34%)", "assay_type": "functional"}, "[2]": {"tested_on": "MDA-MB-231", "test": "Induction of mitochondrial depolarization in human MDA-MB-231 cells assessed as aggregates at 1 uM in dark by JC10 staining based fluorescence microscopy (reference value: 94.4%)", "assay_type": "functional"}, "[3]": {"tested_on": "MDA-MB-231", "test": "Induction of autophagy in human MDA-MB-231 cells assessed as increase in ATG7 expression at 1 to 5 uM incubated for 24 hrs by Western blot analysis", "assay_type": "functional, cell-based", "details": "dose 1-5 µM"}, "[4]": {"tested_on": "MDA-MB-231", "test": "Induction of apoptosis in human MDA-MB-231 cells assessed as late apoptotic cells at 5 uM measured after 24 hrs by Annexin V/Propidium iodide stain based Flow cytometry (reference value: 2.78%)", "assay_type": "functional"}, "[5]": {"tested_on": "MDA-MB-231", "test": "Induction of cell cycle arrest in human MDA-MB-231 cells assessed as accumulation of cells at G2 phase at 2 uM measured after 24 hrs by flow cytometry (reference value: 20.2%)", "assay_type": "functional"}, "[6]": {"tested_on": "MDA-MB-468", "test": "Anticancer activity in human MDA-MB-468 cells xenografted mouse model assessed as reduction in tumor weight at 10 mg/kg, ip treated for 33 days", "assay_type": "functional", "details": "MDA-MB-468, ip, 792 h, time 33 day"}, "[7]": {"tested_on": "MDA-MB-468", "test": "Anticancer activity in human MDA-MB-468 cells xenografted mouse model assessed as tumor growth inhibition at 5 mg/kg, ip treated for 33 days relative to control", "assay_type": "functional, organism-based", "details": "time 33.0 day"}, "[8]": {"tested_on": "MDA-MB-468", "test": "Antitumor activity against human MDA-MB-468 cells xenografted in NOD/SCID mouse assessed as increase in LC3B expression in tumor tissue at 5 to 10 mg/kg, ip treated for 33 days by immunohistochemical analysis", "assay_type": "functional, organism-based", "details": "dose 5-10 mg/kg, time 33.0 day"}, "[9]": {"tested_on": "MDA-MB-468", "test": "Effect on mTOR expression in human MDA-MB-468 cells measured at 1 to 5 uM after 24 hrs by Western blot analysis", "assay_type": "functional, cell-based", "details": "dose 1-5 µM"}, "[10]": {"molecular_target": "RAC-alpha serine/threonine-protein kinase (Homo sapiens) (UniProt P31749)", "sequence (P31749 whole entry)": "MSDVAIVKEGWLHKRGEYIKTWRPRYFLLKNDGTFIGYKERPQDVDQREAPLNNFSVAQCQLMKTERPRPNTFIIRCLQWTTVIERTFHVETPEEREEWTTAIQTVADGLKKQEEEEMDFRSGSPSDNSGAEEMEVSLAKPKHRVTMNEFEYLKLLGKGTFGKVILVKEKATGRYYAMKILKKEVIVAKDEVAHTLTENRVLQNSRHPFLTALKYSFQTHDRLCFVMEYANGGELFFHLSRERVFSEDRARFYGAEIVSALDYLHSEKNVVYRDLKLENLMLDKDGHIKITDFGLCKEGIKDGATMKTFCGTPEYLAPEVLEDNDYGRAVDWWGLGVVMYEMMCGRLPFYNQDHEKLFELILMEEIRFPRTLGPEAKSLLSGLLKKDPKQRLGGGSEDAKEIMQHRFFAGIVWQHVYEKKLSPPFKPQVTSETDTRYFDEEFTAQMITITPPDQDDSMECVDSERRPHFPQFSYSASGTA", "test": "Binding affinity to Akt1 in human MDA-MB-468 cells assessed as shifted melting curve at 2 uM by CETSA assay", "assay_type": "cell-based"}, "[11]": {"tested_on": "MDA-MB-231", "test": "Induction of cell cycle arrest in human MDA-MB-231 cells assessed as accumulation of cells at G2 phase at 5 uM measured after 24 hrs by flow cytometry (reference value: 20.2%)", "assay_type": "functional"}, "[12]": {"tested_on": "MCF-10A", "test": "Cytotoxicity against human MCF-10A cells assessed as reduction in cell viability incubated for 96 hrs by MTT method", "assay_type": "cell-based"}, "[13]": {"test": "Toxicity in NOD/SCID mouse assessed as change in body weight at 5 to 10 mg/kg, ip treated for 33 days", "assay_type": "organism-based", "details": "in vivo, 792 h, dose 5-10 mg/kg, time 33 day"}, "[14]": {"tested_on": "MDA-MB-231", "test": "Antitumor activity against human MDA-MB-231 cells xenografted in NOD/SCID mouse assessed as decrease in CD31 expression in tumor tissue at 5 to 10 mg/kg, ip treated for 33 days by immunohistochemical analysis", "assay_type": "functional, organism-based", "details": "dose 5-10 mg/kg, time 33.0 day"}, "[15]": {"tested_on": "MDA-MB-231", "test": "Induction of mitochondrial depolarization in human MDA-MB-231 cells assessed as aggregates at 5 uM in dark by JC10 staining based fluorescence microscopy (reference value: 94.4%)", "assay_type": "functional"}, "[16]": {"species_on_record": "Homo sapiens", "test": "Inhibition of PI3K (unknown origin) by ADP-Glo assay"}, "[17]": {"tested_on": "MDA-MB-231", "test": "Effect on mTOR expression in human MDA-MB-231 cells measured at 1 to 5 uM after 24 hrs by Western blot analysis", "assay_type": "functional, cell-based", "details": "dose 1-5 µM"}, "[18]": {"tested_on": "MDA-MB-231", "test": "Induction of apoptosis in human MDA-MB-231 cells assessed as early apoptotic cells at 2 uM measured after 24 hrs by Annexin V/Propidium iodide stain based Flow cytometry (reference value: 3.34%)", "assay_type": "functional"}, "[19]": {"tested_on": "MDA-MB-468", "test": "Induction of autophagy in human MDA-MB-468 cells assessed as elimination of p62 at 1 to 5 uM incubated for 24 hrs by Western blot analysis", "assay_type": "functional, cell-based", "details": "dose 1-5 µM"}, "[20]": {"tested_on": "MDA-MB-468", "test": "Induction of cell cycle arrest in human MDA-MB-468 cells assessed as accumulation of cells at S phase at 2 uM measured after 24 hrs by flow cytometry (reference value: 46.9%)", "assay_type": "functional"}, "[21]": {"tested_on": "MDA-MB-231", "test": "Inhibition of Akt phosphorylation in human MDA-MB-231 cells measured after 24 hrs by Western blot analysis", "assay_type": "cell-based"}, "[22]": {"test": "Selectivity index, ratio of IC50 for human MCF-10A cells to IC50 for human MBA-MB-231 cells", "assay_type": "functional"}, "[23]": {"tested_on": "MCF7", "test": "Cytotoxicity against human MCF7 cells assessed as reduction in cell viability incubated for 96 hrs by MTT method", "assay_type": "functional, cell-based", "details": "MCF7, 96 h"}, "[24]": {"tested_on": "MDA-MB-468", "test": "Induction of mitochondrial depolarization in human MDA-MB-468 cells assessed as aggregates at 5 uM in dark by JC10 staining based fluorescence microscopy (reference value: 91.6%)", "assay_type": "functional"}, "[25]": {"tested_on": "MDA-MB-231", "test": "Induction of mitochondrial depolarization in human MDA-MB-231 cells assessed as aggregates at 2 uM in dark by JC10 staining based fluorescence microscopy (reference value: 94.4%)", "assay_type": "functional"}, "[26]": {"test": "Toxicity in NOD/SCID mouse assessed as cytotoxicity in spleen at 10 mg/kg, ip treated for 33 days by H&E staining analysis", "assay_type": "organism-based", "details": "in vivo, 792 h, time 33 day"}, "[27]": {"tested_on": "MDA-MB-231", "test": "Induction of cell cycle arrest in human MDA-MB-231 cells assessed as accumulation of cells at G1 phase at 2 uM measured after 24 hrs by flow cytometry (reference value: 47.7%)", "assay_type": "functional"}, "[28]": {"tested_on": "MDA-MB-231", "test": "Induction of autophagy in human MDA-MB-231 cells assessed as cleaved PARP at 1 to 5 uM incubated for 24 hrs in presence of chloroquine by Western blot analysis relative to control", "assay_type": "functional, cell-based", "details": "dose 1-5 µM"}, "[29]": {"tested_on": "MDA-MB-468", "test": "Antiproliferative activity against human MDA-MB-468 cells assessed as supression of long term proliferative capacity measured for 2 weeks by Colony formation assay", "assay_type": "functional, cell-based", "details": "dose 0.05-0.2 µM"}, "[30]": {"tested_on": "MDA-MB-231", "test": "Induction of autophagy in human MDA-MB-231 cells assessed as increase in ATG5 expression at 1 to 5 uM incubated for 24 hrs by Western blot analysis", "assay_type": "functional, cell-based", "details": "dose 1-5 µM"}, "[31]": {"molecular_target": "Serine/threonine-protein kinase mTOR (Homo sapiens) (UniProt P42345)", "test": "Inhibition of mTOR phosphorylation in human MDA-MB-468 cells measured after 24 hrs by Western blot analysis", "assay_type": "cell-based", "details": "dose 1-5 µM"}, "[32]": {"tested_on": "MDA-MB-231", "test": "Induction of apoptosis in human MDA-MB-231 cells assessed as increase in cleaved PARP at 1 to 5 uM measured after 24 hrs by Western blot analysis", "assay_type": "functional, cell-based", "details": "dose 1-5 µM"}, "[33]": {"tested_on": "MDA-MB-231", "test": "Induction of cell cycle arrest in human MDA-MB-231 cells assessed as accumulation of cells at S phase at 2 uM measured after 24 hrs by flow cytometry (reference value: 32.2%)", "assay_type": "functional"}, "[34]": {"test": "Toxicity in NOD/SCID mouse assessed as cytotoxicity in kidney at 10 mg/kg, ip treated for 33 days by H&E staining analysis", "assay_type": "organism-based", "details": "in vivo, 792 h, time 33 day"}, "[35]": {"molecular_target": "Serine/threonine-protein kinase mTOR (Homo sapiens) (UniProt P42345)", "test": "Inhibition of mTOR phosphorylation in human MDA-MB-231 cells measured after 24 hrs by Western blot analysis", "assay_type": "cell-based", "details": "dose 1-5 µM"}, "[36]": {"tested_on": "MDA-MB-468", "test": "Induction of mitochondrial depolarization in human MDA-MB-468 cells assessed as monomers at 2 uM in dark by JC10 staining based fluorescence microscopy (reference value: 8.4%)", "assay_type": "functional"}},
  "note": "Active and inactive are the calls of the source. The calls are words filed in the database; no cut-off is given here.",
  "data": [
    {"smiles": "C=C1C(=O)C2=C[C@H]1CCC(=O)[C@]1(C)[C@H](O)CCC(C)(C)[C@H]1C[C@H]2O", "values": [
      {"measurement": "Activity", "setting": "[1]", "value": 6.59, "unit": "%"},
      {"measurement": "Activity", "setting": "[2]", "value": 81.1, "unit": "%"},
      {"measurement": "Activity", "setting": "[3]", "value": "Active"},
      {"measurement": "Activity", "setting": "[4]", "value": 28, "unit": "%"},
      {"measurement": "Activity", "setting": "[5]", "value": 31.7, "unit": "%"},
      {"measurement": "inhibition in vivo at 10 mg/kg", "setting": "[6]", "value": 58, "unit": "%"},
      {"measurement": "Activity", "setting": "[7]", "value": "Active"},
      {"measurement": "Activity", "setting": "[8]", "value": "Active"},
      {"measurement": "Activity", "setting": "[9]", "value": "inactive"},
      {"measurement": "Activity", "setting": "[10]", "value": "Active"},
      {"measurement": "Activity", "setting": "[11]", "value": 37.4, "unit": "%"},
      {"measurement": "IC50", "setting": "[12]", "value": 1050, "unit": "nM"},
      {"measurement": "Activity", "setting": "[13]", "value": "Non-Toxic"},
      {"measurement": "Activity", "setting": "[14]", "value": "Active"},
      {"measurement": "Activity", "setting": "[15]", "value": 23.8, "unit": "%"},
      {"measurement": "inhibition", "setting": "[16]", "value": "inactive"},
      {"measurement": "Activity", "setting": "[17]", "value": "inactive"},
      {"measurement": "Activity", "setting": "[18]", "value": 8.05, "unit": "%"},
      {"measurement": "Activity", "setting": "[19]", "value": "Active"},
      {"measurement": "Activity", "setting": "[20]", "value": 27.6, "unit": "%"},
      {"measurement": "inhibition", "setting": "[21]", "value": "Active"},
      {"measurement": "Selectivity Index", "setting": "[22]", "value": 14},
      {"measurement": "IC50", "setting": "[23]", "value": 113, "unit": "nM"},
      {"measurement": "Activity", "setting": "[24]", "value": 13.3, "unit": "%"},
      {"measurement": "Activity", "setting": "[25]", "value": 56.9, "unit": "%"},
      {"measurement": "Activity", "setting": "[26]", "value": "Non-Toxic"},
      {"measurement": "Activity", "setting": "[27]", "value": 33.8, "unit": "%"},
      {"measurement": "Activity", "setting": "[28]", "value": "inactive"},
      {"measurement": "Activity", "setting": "[29]", "value": "Active"},
      {"measurement": "Activity", "setting": "[30]", "value": "Active"},
      {"measurement": "inhibition", "setting": "[31]", "value": "Active"},
      {"measurement": "Activity", "setting": "[32]", "value": "Active"},
      {"measurement": "Activity", "setting": "[33]", "value": 34.5, "unit": "%"},
      {"measurement": "Activity", "setting": "[34]", "value": "Non-Toxic"},
      {"measurement": "inhibition", "setting": "[35]", "value": "Active"},
      {"measurement": "Activity", "setting": "[36]", "value": 78.5, "unit": "%"}
    ]}
  ]
}
